Measured values published in paper PMC9262897, “Low-cost anti-mycobacterial drug discovery using engineered E. coli” (Nature Communications, 2022).

Tests used:
[1] = target: T1, Mtb alanine racemase (Alr) (Mycobacterium tuberculosis, UniProt P9WQA9)
[2] = target: T1, Mtb alanine racemase (Alr); test: […]; Michaelis-Menten kinetics; assay type: biochemical

T1 sequence (P9WQA9 whole entry): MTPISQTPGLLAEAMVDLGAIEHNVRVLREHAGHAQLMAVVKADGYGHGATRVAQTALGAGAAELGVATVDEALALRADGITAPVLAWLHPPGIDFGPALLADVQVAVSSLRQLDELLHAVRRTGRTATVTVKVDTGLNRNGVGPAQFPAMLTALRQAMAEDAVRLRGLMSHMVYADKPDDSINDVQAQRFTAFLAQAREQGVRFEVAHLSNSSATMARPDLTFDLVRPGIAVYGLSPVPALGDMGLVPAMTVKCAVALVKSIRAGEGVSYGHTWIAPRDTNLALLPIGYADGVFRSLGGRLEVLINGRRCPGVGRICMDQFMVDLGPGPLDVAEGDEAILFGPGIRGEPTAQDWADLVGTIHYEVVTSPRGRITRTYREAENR

Structure (SMILES) | Michaelis-Menten kinetics of purified Alr in the coupled NADH fluorescence assay [1] | IC50 [2]
C[C@@H](N)C(=O)O [D-alanine] | Varying the concentration of D-alanine yielded conventional Michaelis–Menten kinetics for Alr | –
CCOC(=O)[C@H](CCc1ccccc1)N[C@H]1CCc2ccccc2N(CC(=O)O)C1=O [benazepril] | – | 300 µM
